# Columns and labels:
# [1] = tested on: stem cells of human epidermal keratinocytes; test: Count of small dividing cells with high sirtuin protein expression, with or without TLR4/MD2 (Test Examples 4-6); assay type: cell-based; conditions: for sirtuin protein expression in stem cells (count of small dividing cells with high sirtuin expression) vs negative control: 24 hours; for sirtuin induction in stem cells upon addition of TLR4/MD2: 10 ng/ml fragment plus 1 g/ml of TLR4/MD2
# Procedure: A test of sirtuin induction in human epidermal keratinocytes was conducted in the same manner as in Test Example 1.
# The results are shown as average count within the observed visual field.
# In the meantime, similar observations were made in relation to human epidermal keratinocytes cultured in a culture broth to which 10 ng/ml of hyaluronic acid fragment (4mer) and 1 g/ml of TLR4/MD2 (TLR4 (toll-like receptor 4) protein produced by genetic recombination techniques, made by R&D Systems Inc.) were added.
# A test similar to Test Example 5 was carried out, using chemically synthesized three-unit size hyaluronic acid fragments (L3mer) in place of hyaluronic acid fragment (4mer).
# liver of aged rat = test: Liver of aged rat preserved in organ preservation solution, microscopy and bleb count (Test Example 14); conditions: for sinusoidal constriction and appearance of blebs in liver tissue slice: 100 ng/ml in organ preservation solution, SD rats aged 24 months
# Procedure: The effect of action of the hyaluronic acid fragment on the liver of aged rat was investigated. The following test solutions were prepared.
# (Test Solutions) • Organ preservation solution (University of Wisconsin solution: the standard solution used for organ preservation) • The above organ preservation solution, into which hyaluronic acid fragment (4mer) was dissolved to a final concentration of 100 ng/ml • The above organ preservation solution, into which hyaluronic acid fragment (L3mer) was dissolved to a final concentration of 100 ng/ml • The above organ preservation solution, into which hyaluronic acid fragment (L3mer) was dissolved to a final concentration of 100 ng/ml, then dissolving TLR4/MD2 into the above organ preservation solution, to a final concentration of 10 μg/ml.
# SD rats aged 24 months (aged rats) were injected with the test solutions from the hepatic portal, and after perfusion of 7.5 ml, were preserved for six hours in the same solution at 37° C. Slices were prepared from blocks prepared by freezing of the livers embedded in OCT compound, and were subjected to microscope examination.
# Prior to preservation, distinct sinusoids could be observed. […] Blebs (bubbles) that appear in ischemic liver tissue arise as a result of an activation of Ca ion-dependent proteolytic enzymes and a disorder of the cytoskeletal system, in which lowered ATP levels due to ischemia lead to effusion of Ca ions from the mitochondria to the cellular cytoplasm. In the course of passing through these changes, the liver cells experience cell death. Such changes have been confirmed to occur in clinical conditions such as pharmaceutical toxicity, aging, and the like, and in concanavalin A-induced liver damage.
# [2] = tested on: human large intestine epithelial cells (HT29 cells); test: Hydrogen peroxide induced aging of human large intestine epithelial cells, MTS assay (Test Examples 16-18); assay type: cell-based; conditions: for suppression of cellular aging (MTS value, OD 490 nm): hydrogen peroxide 10 μM 15 min; for suppression of cellular aging with TLR4/MD2 added (MTS): hydrogen peroxide 10 μM, 100 ng/ml plus TLR4/MD2 10 μg/ml, 3 hours
# Procedure: Human large intestine epithelial cells (HT29 cells) were experienced cellular aging (decline in mitochondrial activity due to injury, or a drop in the MTS value once cell death occurs) due to stimulation by the hydrogen peroxide when treated with hydrogen peroxide, and it was investigated whether this process is affected by treatment with the hyaluronic acid fragment. Specifically, the following test was performed.
# Using a DMEM culture medium (made by Wako Pure Chemical Industries, Ltd.), human large intestine epithelial cells (HT29 cells) were cultured by usual methods at 37° C. under 5% CO2. Hydrogen peroxide was added to the culture medium to a final concentration of 10 μM to bring about stimulation for a 15-minute period, and the culture broth was then transferred to DMEM culture medium containing no hyaluronic acid fragments; to DMEM culture medium containing hyaluronic acid fragment (4mer) in a final concentration of 100 ng/ml; or to DMEM culture medium containing the hyaluronic acid fragment (4mer) plus TLR4/MD2 in a final concentration of 10 μg/ml, and cultured for 3 hours.
# (§1) After 3 hours had passed, an MTS assay was performed. On the basis of the action, in which MTS is converted to formazan by dehydrogenation in the mitochondria of the cell, OD 490 nm was measured to measure mitochondrial function.
# Using hyaluronic acid fragment (4mer), hyaluronic acid fragment (L4mer) and hyaluronic acid fragment (L3mer) as test substances, tests similar to those of Test Example 16 were performed, except that the culture time following transfer to the culture medium containing the test substance was one hour.
# Tests similar to those of Test Example 16 were performed, except for using hyaluronic acid fragment (L4mer), and hyaluronic acid fragment (L3mer) as test substances.
# [3] = tested on: human oral epithelial cells (Ca9-22 cells); test: Hydrogen peroxide induced aging of human oral epithelial cells, MTS assay (Test Example 19); assay type: cell-based; conditions: hydrogen peroxide 1 μM 15 min, then 100 ng/ml for 3 hours
# Procedure: It was investigated whether the process, in which mitochondrial function of human oral epithelial cells (Ca9-22 cells) declines when treated with hydrogen peroxide, is affected by treatment with the hyaluronic acid fragment. Specifically, the following test was performed.
# Using a DMEM culture medium (made by Wako Pure Chemical Industries, Ltd.), human oral epithelial cells (Ca9-22 cells) were cultured by usual methods at 37° C. under 5% CO2. Hydrogen peroxide was added to the culture medium to a final concentration of 1 μM to bring about stimulation for a 15-minute period, and the culture broth was then transferred to DMEM culture medium containing no hyaluronic acid fragments; to DMEM culture medium containing hyaluronic acid fragment (L3mer) in a final concentration of 100 ng/ml; to DMEM culture medium containing hyaluronic acid fragment (4mer) in a final concentration of 100 ng/ml; or to DMEM culture medium containing 900 kDa hyaluronic acid in a final concentration of 100 ng/ml, and cultured for 3 hours.
# as §1
# Keratin K14 = test: Keratinocyte marker Keratin K14 in human epidermal keratinocytes (Test Example 22); assay type: cell-based; conditions: for Keratin K14 induction with TLR4/MD2 added: plus TLR4/MD2 1 μg/ml; for cells with high expression of Keratin K14 (immunostaining intensity): stimulated as in Test Example 1
# Procedure: (§2) Human epidermal keratinocytes were stimulated in the same manner as in Test Example 1, except for using the 4mer or the L3mer as the hyaluronic acid fragment, and further adding TLR4/MD2 to a final concentration of 1 μg/ml.
# The cells in each well were stained with anti keratin K14 antibody, and the immunostaining intensity was measured with an Array Scan scanning device (made by Thermo Scientific). Keratin K14 is a marker of basal layer keratinocytes.
# filaggrin = test: Keratinocyte marker Filaggrin in human epidermal keratinocytes (Test Example 23); assay type: cell-based; conditions: for filaggrin induction with TLR4/MD2 added: plus TLR4/MD2 1 μg/ml; for cells with high expression of filaggrin (immunostaining intensity): stimulated as in Test Example 1
# Procedure: as §2
# The cells in each well were stained with the anti filaggrin antibody, and the immunostaining intensity was measured with an Array Scan scanning device (made by Thermo Scientific). Filaggrin, which is produced by granular layer keratinocytes, is a marker of mature keratinocytes.
# [4] = then test substance for one hour
SMILES,sirtuin protein expression in stem cells (count of small dividing cells with high sirtuin expression) vs negative control ([1]; 0.01 ng/ml),sirtuin induction in stem cells upon addition of TLR4/MD2 [1],sirtuin protein expression in stem cells (count of small dividing cells with high sirtuin expression) vs negative control ([1]; 10 ng/ml),sinusoidal constriction and appearance of blebs in liver tissue slice (liver of aged rat; six hours at 37° C.),"suppression of cellular aging (MTS value, OD 490 nm) ([2]; then 100 ng/ml for 3 hours)","suppression of cellular aging (MTS value, OD 490 nm) [2, 4]",suppression of cellular aging with TLR4/MD2 added (MTS) [2],"suppression of cellular aging (MTS, mitochondrial function) [3]",Keratin K14 induction with TLR4/MD2 added (Keratin K14),cells with high expression of Keratin K14 (immunostaining intensity) (Keratin K14),filaggrin induction with TLR4/MD2 added (filaggrin),cells with high expression of filaggrin (immunostaining intensity) (filaggrin),effect in suppressing the appearance of blebs with TLR4/MD2 added (bleb count) (liver of aged rat; 100 ng/ml plus TLR4/MD2 10 μg/ml),"condition of liver tissue slice with TLR4/MD2 added (liver of aged rat; 100 ng/ml plus TLR4/MD2 10 μg/ml, six hours at 37° C.)","effect of suppressing the appearance of blebs (bleb count per unit surface area) (liver of aged rat; 100 ng/ml, comparison L3mer vs 4mer)"
"CC(=O)N[C@H]1[C@H](O[C@H]2[C@H](O)[C@@H](O)[C@H](O[C@H]3[C@H](O)[C@@H](CO)OC(O)[C@@H]3NC(C)=O)O[C@@H]2C(=O)O)O[C@H](CO)[C@@H](O)[C@@H]1O[C@@H]1O[C@H](C(=O)O)[C@@H](O)[C@H](O)[C@H]1O (some centres unmarked) [4mer, GlcA(-GlcNAc-GlcA)1-GlcNAc]",markedly promoted,completely inhibited,markedly promoted,sinusoidal constriction and appearance of blebs were suppressed,suppressed cellular aging,showed effect in suppressing cellular aging,inhibited by addition of TLR4/MD2,suppress cellular aging,inhibited by addition of TLR4/MD2,cells with high expression of Keratin K14 increased,inhibited by addition of TLR4/MD2,cells with high expression of filaggrin increased,–,–,–
CC(=O)NC1C(O[C@@H]2OC(C(=O)O)[C@@H](O)C(O)C2O)[C@H](O)C(CO)O[C@H]1O[C@@H]1C(C(=O)O)O[C@@H](OCCCN=[N+]=[N-])C(O)C1O (some centres unmarked) [L3mer],–,substantially completely inhibited,give rise to sirtuin induction,sinusoidal constriction and appearance of blebs were suppressed,showed effect in suppressing cellular aging,showed effect in suppressing cellular aging,inhibited by the addition of TLR4/MD2,suppress cellular aging,inhibited by addition of TLR4/MD2,cells with high expression of Keratin K14 increased,inhibited by addition of TLR4/MD2,cells with high expression of filaggrin increased,reduced by the addition of TLR4/MD2,numerous blebs (bubbles) appeared,higher with L3mer treatment than with 4mer treatment
